According to ChEMBL document CHEMBL5214940, “New potent ciprofloxacin-uracil conjugates as DNA gyrase and topoisomerase IV inhibitors against methicillin-resistant Staphylococcus aureus” (Bioorg Med Chem, 2022):
pIC50: −log10 of the molar value. Converted amounts (≈) assume the structure as drawn.

Columns and labels:
[1] = tested on: Escherichia coli; assay: Antibacterial activity against […] assessed as zone of inhibition by cup-plate agar diffusion method; assay type: functional
[2] = tested on: Klebsiella pneumoniae; assay: Antibacterial activity against Klebsiella pneumoniae ATCC10031 assessed as zone of inhibition by cup-plate agar diffusion method; assay type: functional
[3] = tested on: Pseudomonas aeruginosa; assay: Antibacterial activity against Pseudomonas aeruginosa ATCC27853 assessed as zone of inhibition by cup-plate agar diffusion method; assay type: functional
[4] = tested on: Staphylococcus aureus; assay: Antibacterial activity against Staphylococcus aureus ATCC6538 assessed as zone of inhibition by cup-plate agar diffusion method; assay type: functional
[5] = tested on: Staphylococcus aureus; assay: Antibacterial activity against methicillin-resistant Staphylococcus aureus AUMC 261 assessed as zone of inhibition by cup-plate agar diffusion method; assay type: functional
[6] = target: DNA gyrase (Escherichia coli, UniProt P0AES4+P0AES6); assay: Inhibition of Escherichia coli DNA gyrase supercoiling activity using […] as substrate incubated for 15 to 30 mins by agarose gel electrophoresis analysis; assay type: protein-complex assay
[7] = Inhibition of Escherichia coli topoisomerase 4 mediated relaxation of supercoiled pHOT1 DNA at expense of ATP hydrolysis by ethidium bromide staining based agarose gel electrophoresis

Row | MIC [1] | MIC [2] | MIC [3] | MIC [4] | SMILES | MIC [5] | pIC50 [6] | pIC50 [7]
1 | 4.61 µM (≈ 3.12 µg/mL) | 18.5 µM (≈ 12.5 µg/mL) | > 100 µM | > 100 µM | COc1ccc(NC(=O)CSc2nc(NC(=O)CN3CCN(c4cc5c(cc4F)c(=O)c(C(=O)O)cn5C4CC4)CC3)cc(=O)[nH]2)cc1 | – | – | –
2 | 1.48 µM (≈ 0.779 µg/mL) | 2.97 µM (≈ 1.56 µg/mL) | 2.97 µM (≈ 1.56 µg/mL) | > 100 µM | Cn1c(NC(=O)CN2CCN(c3cc4c(cc3F)c(=O)c(C(=O)O)cn4C3CC3)CC2)cc(=O)n(C)c1=O | – | – | –
3 | 1.3 µM (≈ 0.783 µg/mL) | 5.18 µM (≈ 3.12 µg/mL) | 2.59 µM (≈ 1.56 µg/mL) | > 100 µM | N=C1N=C(SCC(=O)N2CCN(c3cc4c(cc3F)c(=O)c(C(=O)O)cn4C3CC3)CC2)NC(=O)/C1=C/c1ccccc1 | – | – | –
4 | 9.66 µM (≈ 6.26 µg/mL) | 19.3 µM (≈ 12.5 µg/mL) | > 100 µM | > 100 µM | O=C(CSc1nc(NC(=O)CN2CCN(c3cc4c(cc3F)c(=O)c(C(=O)O)cn4C3CC3)CC2)cc(=O)[nH]1)Nc1ccccc1 | – | – | –
5 | 18.9 µM (≈ 12.5 µg/mL) | 37.8 µM (≈ 25 µg/mL) | > 100 µM | > 100 µM | Cc1ccc(NC(=O)CSc2nc(NC(=O)CN3CCN(c4cc5c(cc4F)c(=O)c(C(=O)O)cn5C4CC4)CC3)cc(=O)[nH]2)cc1 | – | – | –
6 | 11.3 µM (≈ 6.26 µg/mL) | 22.6 µM (≈ 12.5 µg/mL) | > 100 µM | 18.1 µM (≈ 10 µg/mL) | C=CCSc1nc(NC(=O)CN2CCN(c3cc4c(cc3F)c(=O)c(C(=O)O)cn4C3CC3)CC2)cc(=O)[nH]1 | – | – | –
7 | 4.59 µM (≈ 3.13 µg/mL) | 9.19 µM (≈ 6.26 µg/mL) | > 100 µM | > 100 µM | N=C1N=C(SCC(=O)N2CCN(c3cc4c(cc3F)c(=O)c(C(=O)O)cn4C3CC3)CC2)NC(=O)/C1=C/c1ccc(Br)cc1 | – | – | –
8 | 5.03 µM (≈ 3.12 µg/mL) | 20.2 µM (≈ 12.5 µg/mL) | > 100 µM | > 100 µM | N=C1N=C(SCC(=O)N2CCN(c3cc4c(cc3F)c(=O)c(C(=O)O)cn4C3CC3)CC2)NC(=O)/C1=C/c1ccc(F)cc1 | – | – | –
9 | 3.05 µM (≈ 1.56 µg/mL) | 6.1 µM (≈ 3.13 µg/mL) | > 100 µM | > 100 µM | Cn1c(=O)cc(NC(=O)CN2CCN(c3cc4c(cc3F)c(=O)c(C(=O)O)cn4C3CC3)CC2)[nH]c1=O | – | – | –
10 | 4.71 µM (≈ 3.12 µg/mL) | 4.71 µM (≈ 3.12 µg/mL) | 2.97 µM (≈ 1.97 µg/mL) | > 100 µM | COc1ccc(/C=C2\C(=N)N=C(SCC(=O)N3CCN(c4cc5c(cc4F)c(=O)c(C(=O)O)cn5C4CC4)CC3)NC2=O)cc1OC | – | – | –
11 | 4.91 µM (≈ 3.13 µg/mL) | 4.91 µM (≈ 3.13 µg/mL) | > 100 µM | > 100 µM | N=C1N=C(SCC(=O)N2CCN(c3cc4c(cc3F)c(=O)c(C(=O)O)cn4C3CC3)CC2)NC(=O)/C1=C/c1ccc(Cl)cc1 | – | – | –

Continued, compound first:

Row | SMILES | MIC [1] | MIC [2] | MIC [3] | MIC [4] | MIC [5] | pIC50 [6] | pIC50 [7]
12 | CCCSc1nc(NC(=O)CN2CCN(c3cc4c(cc3F)c(=O)c(C(=O)O)cn4C3CC3)CC2)cc(=O)[nH]1 | 5.61 µM (≈ 3.12 µg/mL) | 11.2 µM (≈ 6.26 µg/mL) | > 100 µM | 18 µM (≈ 10 µg/mL) | – | – | –
13 | CCCCSc1nc(NC(=O)CN2CCN(c3cc4c(cc3F)c(=O)c(C(=O)O)cn4C3CC3)CC2)cc(=O)[nH]1 | 2.73 µM (≈ 1.56 µg/mL) | 5.47 µM (≈ 3.12 µg/mL) | > 100 µM | 17.5 µM (≈ 10 µg/mL) | – | – | –
14 | O=C(CN1CCN(c2cc3c(cc2F)c(=O)c(C(=O)O)cn3C2CC2)CC1)Nc1cc(=O)[nH]c(=O)[nH]1 | 0.78 µM (≈ 0.389 µg/mL) | 1.57 µM (≈ 0.783 µg/mL) | > 100 µM | 1.25 µM (≈ 0.623 µg/mL) | 0.031 µM (≈ 0.0155 µg/mL) | 5.76 | 5.36
15 | O=C(CSc1nc(NC(=O)CN2CCN(c3cc4c(cc3F)c(=O)c(C(=O)O)cn4C3CC3)CC2)cc(=O)[nH]1)Nc1ccc(Cl)cc1 | 18.4 µM (≈ 12.5 µg/mL) | 4.58 µM (≈ 3.12 µg/mL) | > 100 µM | 14.7 µM (≈ 10 µg/mL) | 7.22 µM (≈ 4.93 µg/mL) | – | –
16 | COc1cc(/C=C2\C(=N)N=C(SCC(=O)N3CCN(c4cc5c(cc4F)c(=O)c(C(=O)O)cn5C4CC4)CC3)NC2=O)cc(OC)c1OC | 4.51 µM (≈ 3.12 µg/mL) | 9.03 µM (≈ 6.26 µg/mL) | > 100 µM | 4.25 µM (≈ 2.94 µg/mL) | 0.096 µM (≈ 0.0665 µg/mL) | – | –
17 | CCCn1c(=O)cc(NC(=O)CN2CCN(c3cc4c(cc3F)c(=O)c(C(=O)O)cn4C3CC3)CC2)[nH]c1=O | 11.6 µM (≈ 6.25 µg/mL) | 11.6 µM (≈ 6.25 µg/mL) | > 100 µM | 18.5 µM (≈ 10 µg/mL) | – | – | –
18 | O=C(O)c1cn(C2CC2)c2cc(N3CCNCC3)c(F)cc2c1=O [CIPROFLOXACIN] | 0.6 µM (≈ 0.199 µg/mL) | 1.21 µM (≈ 0.401 µg/mL) | 0.6 µM (≈ 0.199 µg/mL) | 7.58 µM (≈ 2.51 µg/mL) | 0.57 µM (≈ 0.189 µg/mL) | – | 5.09
19 | CSc1nc(NC(=O)CN2CCN(c3cc4c(cc3F)c(=O)c(C(=O)O)cn4C3CC3)CC2)cc(=O)[nH]1 | 2.95 µM (≈ 1.56 µg/mL) | 5.91 µM (≈ 3.12 µg/mL) | > 100 µM | 2.37 µM (≈ 1.25 µg/mL) | 0.046 µM (≈ 0.0243 µg/mL) | 5.24 | 5.11
20 | COc1cc(/C=C2\C(=N)N=C(SCC(=O)N3CCN(c4cc5c(cc4F)c(=O)c(C(=O)O)cn5C4CC4)CC3)NC2=O)ccc1O | 2.41 µM (≈ 1.56 µg/mL) | 4.81 µM (≈ 3.12 µg/mL) | > 100 µM | 7.58 µM (≈ 4.92 µg/mL) | 1.57 µM (≈ 1.02 µg/mL) | – | –
21 | COc1ccc(/C=C2\C(=N)N=C(SCC(=O)N3CCN(c4cc5c(cc4F)c(=O)c(C(=O)O)cn5C4CC4)CC3)NC2=O)cc1 | 4.94 µM (≈ 3.13 µg/mL) | 2.47 µM (≈ 1.56 µg/mL) | > 100 µM | 15.8 µM (≈ 10 µg/mL) | 2.43 µM (≈ 1.54 µg/mL) | – | –
